From patent US20210179578A1, “OX1 ANTAGONISTS” (Heptares Therapeutics Limited, priority 2017, published 2021) come the findings set out here.

One test concerns the target T1, human OX1 receptor (Homo sapiens, UniProt O43613).
T1 sequence (O43613 1-425): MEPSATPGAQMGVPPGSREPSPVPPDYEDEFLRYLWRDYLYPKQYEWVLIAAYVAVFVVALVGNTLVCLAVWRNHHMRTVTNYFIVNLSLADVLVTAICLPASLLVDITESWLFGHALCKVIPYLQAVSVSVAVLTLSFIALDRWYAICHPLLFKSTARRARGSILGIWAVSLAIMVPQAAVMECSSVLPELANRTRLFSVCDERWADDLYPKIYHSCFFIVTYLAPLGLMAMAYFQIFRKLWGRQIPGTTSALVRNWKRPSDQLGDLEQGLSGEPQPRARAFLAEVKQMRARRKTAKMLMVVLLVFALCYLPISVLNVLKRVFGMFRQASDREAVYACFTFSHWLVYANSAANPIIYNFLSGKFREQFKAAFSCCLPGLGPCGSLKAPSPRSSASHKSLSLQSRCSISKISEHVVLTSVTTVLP
Description: IPone accumulation assay, CHO cells expressing OX1 (antagonism of orexin A). It is filed as cell-based. The conditions noted are these: IPone accumulation, CHO human OX1, orexin A EC80 challenge (~20 nM); read-out: fpKb average OX1 (converted). As for the experimental part: Generation of CHO stable cell lines expressing the human OX1R and OX2R. Stable cell lines for the human OX1R and OX2R receptors were generated through the transfection of CHO cells using the transfection reagent Genejuice (Novagen number 70967) and cDNA coding for either the human OX1R or OX2R. Cells were cultured in Sigma Nutrient Mixture F-12 Ham media (catalog number N6658) supplemented with 10% heat-inactivated FBS. Forty-eight hours after transfection, cells were harvested and placed under geneticin selection by culturing in Sigma Nutrient Mixture F-12 Ham media supplemented with 10% heat-inactivated FBS and geneticin (ThermoFisher Catalog number: 10131035). Selection of the final stable clone for each receptor was made on the basis of receptor expression, assay signal to noise and robustness though increasing passage. Selected clones for the human OX1R and OX2R were then frozen down into liquid nitrogen using Cell Freezing Medium-DMSO (Sigma-Aldrich catalog number: C6164). IPone accumulation assay. A CHO cell line stably expressing either human OX1 or OX2 receptor was used with the IPone HTRF assay kit (CisBio: Part #62[…]) to measure receptor activation. The assay was optimised to measure the ability (potency; fpKb) of antagonists to reduce agonist (orexin A)-induced inositol phosphate turnover. Briefly, cells were plated onto half area 96-well white walled plates at a density of 12,500 cells/well. Sixteen hours post-plating cell growth media was replaced with antagonist concentration-response curve diluted in stimulation buffer (supplied with the kit). Cells were incubated in a humidified incubator (37° C.) for 30 min before an EC80 challenge concentration ( 20 nM (OX1) and 40 nM (OX2)) of orexin A (Tocris catalogue number 1455). After 30 min stimulation in a humidified incubator (37° C.) the assay was terminated by the addition of detection mixture as per manufacturer's instructions. The concentration of compound which reduced orexin-A stimulated turnover of inositol phosphates by 50% (IC50) was calculated by fitting to a four parameter sigmoidal dose response curve. The IC50 values were converted to fpKB values using the orexin A pEC50 value estimated on each plate as well as the challenge concentration interpolated from the orexin A control curve.
For the molecule `COc1ncc(N2CCc3c(F)cccc3N(Cc3c(C)cc(Br)cc3F)C2=O)cc1S(C)(=O)=O` [Example 17, 1-(4-bromo-2-fluoro-6-methylbenzyl)-6-fluoro-3-[6-methoxy-5-(methylsulfonyl)pyridin-3-yl]-1,3,4,5-tetrahydro-2H-1,3-benzodiazepin-2-one], the Kb is 0.01 µM.

For the molecule `COCc1cc(F)c(CN2C(=O)N(c3cnc(OC)c(C(C)(F)F)c3)CCc3c(F)cccc32)c(F)c1` [Example 7, 3-[5-(1,1-difluoroethyl)-6-methoxypyridin-3-yl]-1-[2,6-difluoro-4-(methoxymethyl)benzyl]-6-fluoro-1,3,4,5-tetrahydro-2H-1,3-benzodiazepin-2-one], the Kb is 0.00794 µM.

On to `COc1ncc(N2CCc3c(F)cccc3N(Cc3c(F)cc(Br)cc3F)C2=O)cc1S(C)(=O)=O` [Example 14, 1-(4-bromo-2,6-difluorobenzyl)-6-fluoro-3-[6-methoxy-5-(methylsulfonyl)pyridin-3-yl]-1,3,4,5-tetrahydro-2H-1,3-benzodiazepin-2-one], for which the Kb was 0.0794 µM.

In the case of `CCCc1cc(F)c(CN2C(=O)N(c3ccc(C)c(S(C)(=O)=O)c3)CCc3c(F)cccc32)c(F)c1` [Example 28, 1-(2,6-difluoro-4-propylbenzyl)-6-fluoro-3-[4-methyl-3-(methylsulfonyl)phenyl]-1,3,4,5-tetrahydro-2H-1,3-benzodiazepin-2-one], the Kb was 0.0794 µM.

In the case of `COCc1cc(F)c(CN2C(=O)N(c3cnc(C)c(C(C)(F)F)c3)CCc3c(F)cccc32)c(F)c1` [Example 33, 3-[5-(1,1-difluoroethyl)-6-methylpyridin-3-yl]-1-[2,6-difluoro-4-(methoxymethyl)benzyl]-6-fluoro-1,3,4,5-tetrahydro-2H-1,3-benzodiazepin-2-one], the Kb was 0.0158 µM.

For the molecule `Cc1ncc(N2CCc3c(F)cccc3N(Cc3c(F)cc(Br)cc3F)C2=O)cc1C(C)(F)F` [Example 32, 1-(4-bromo-2,6-difluorobenzyl)-3-[5-(1,1-difluoroethyl)-6-methylpyridin-3-yl]-6-fluoro-1,3,4,5-tetrahydro-2H-1,3-benzodiazepin-2-one], the Kb was 0.0631 µM.

Take `COc1ncc(N2CCc3c(F)cccc3N(Cc3c(F)cc(Br)cc3F)C2=O)cc1C(C)(F)F` [Example 3, 1-(4-bromo-2,6-difluorobenzyl)-3-[5-(1,1-difluoroethyl)-6-methoxypyridin-3-yl]-6-fluoro-1,3,4,5-tetrahydro-2H-1,3-benzodiazepin-2-one]: the Kb was 0.0501 µM.

As to `COc1cc(F)c(CN2C(=O)N(c3cnc(OC)c(C(C)(F)F)c3)CCc3c(F)cccc32)c(F)c1` [Example 8, 3-[5-(1,1-difluoroethyl)-6-methoxypyridin-3-yl]-1-(2,6-difluoro-4-methoxybenzyl)-6-fluoro-1,3,4,5-tetrahydro-2H-1,3-benzodiazepin-2-one], the Kb is 0.00316 µM.

As to `COc1ncc(N2CCc3c(F)cccc3N(Cc3c(F)cc(Cl)cc3F)C2=O)cc1C(C)(F)F` [Example 9, 1-(4-chloro-2,6-difluorobenzyl)-3-[5-(1,1-difluoroethyl)-6-methoxypyridin-3-yl]-6-fluoro-1,3,4,5-tetrahydro-2H-1,3-benzodiazepin-2-one], the Kb was 0.0251 µM.

Regarding `Cc1cc(C)c(S(C)(=O)=O)cc1N1CCc2ccccc2N(Cc2c(F)cc(OC(C)C)cc2F)C1=O` [Example 30, 1-[2,6-difluoro-4-(propan-2-yloxy)benzyl]-3-[2,4-dimethyl-5-(methylsulfonyl)phenyl]-1,3,4,5-tetrahydro-2H-1,3-benzodiazepin-2-one], the Kb is 0.0398 µM.

As for `COc1cc(F)c(CN2C(=O)N(c3cc(S(C)(=O)=O)c(OC)nc3OC)CCc3c(F)cccc32)c(F)c1` [Example 25, 1-(2,6-difluoro-4-methoxybenzyl)-3-[2,6-dimethoxy-5-(methylsulfonyl)pyridin-3-yl]-6-fluoro-1,3,4,5-tetrahydro-2H-1,3-benzodiazepin-2-one], the Kb was 0.01 µM.

Consider `[2H]C([2H])([2H])OCc1cc(F)c(CN2C(=O)N(c3cnc(OC)c(C(C)(F)F)c3)CCc3c(F)cccc32)c(F)c1` [Example 5, 3-[5-(1,1-difluoroethyl)-6-methoxypyridin-3-yl]-1-(2,6-difluoro-4-{[(^2H3)methyloxy]methyl}benzyl)-6-fluoro-1,3,4,5-tetrahydro-2H-1,3-benzodiazepin-2-one], for which the Kb is 0.00158 µM.

In the case of `COc1ncc(C2CCc3c(F)cccc3N(Cc3c(F)cc(Cl)cc3F)C2=O)cc1S(C)(=O)=O` (single isomer, unassigned) [Example 22, 1-(4-chloro-2,6-difluorobenzyl)-6-fluoro-3-[6-methoxy-5-(methylsulfonyl)pyridin-3-yl]-1,3,4,5-tetrahydro-2H-1-benzazepin-2-one], the Kb was 0.01 µM.

Consider `[2H]C([2H])([2H])Oc1ncc(N2CCc3c(F)cccc3N(Cc3c(F)cc(Br)cc3F)C2=O)cc1C(C)(F)F` [Example 2, 1-(4-bromo-2,6-difluorobenzyl)-3-{5-(1,1-difluoroethyl)-6-[(^2H3)methyloxy]pyridin-3-yl}-6-fluoro-1,3,4,5-tetrahydro-2H-1,3-benzodiazepin-2-one], for which the Kb is 0.02 µM.

For the molecule `Cc1ccc(N2CCc3c(F)cccc3N(Cc3c(F)cc(Br)cc3F)C2=O)cc1C(C)(F)F` [Example 1, 1-(4-bromo-2,6-difluorobenzyl)-3-[3-(1,1-difluoroethyl)-4-methylphenyl]-6-fluoro-1,3,4,5-tetrahydro-2H-1,3-benzodiazepin-2-one], the Kb was 0.158 µM.

In the case of `COCc1cc(F)c(CN2C(=O)N(c3cc(C(C)(F)F)c(OC)nc3OC)CCc3c(F)cccc32)c(F)c1` [Example 24, 3-[5-(1,1-difluoroethyl)-2,6-dimethoxypyridin-3-yl]-1-[2,6-difluoro-4-(methoxymethyl)benzyl]-6-fluoro-1,3,4,5-tetrahydro-2H-1,3-benzodiazepin-2-one], the Kb is 0.0631 µM.

For the molecule `[2H]C([2H])([2H])Oc1cc(F)c(CN2C(=O)N(c3cnc(OC)c(C(C)(F)F)c3)CCc3c(F)cccc32)c(F)c1` [Example 6, 3-[5-(1,1-difluoroethyl)-6-methoxypyridin-3-yl]-1-{2,6-difluoro-4-[(^2H3)methyloxy]benzyl}-6-fluoro-1,3,4,5-tetrahydro-2H-1,3-benzodiazepin-2-one], the Kb was 0.01 µM.

For the molecule `COc1ncc(N2CCc3c(F)cccc3N(Cc3c(C)cc(F)cc3F)C2=O)cc1S(C)(=O)=O` [Example 18, 1-(2,4-difluoro-6-methylbenzyl)-6-fluoro-3-[6-methoxy-5-(methylsulfonyl)pyridin-3-yl]-1,3,4,5-tetrahydro-2H-1,3-benzodiazepin-2-one], the Kb was 0.01 µM.

As to `COc1ncc(N2CCc3c(F)cccc3N(Cc3ccc(Br)cc3F)C2=O)cc1C(C)(F)F` [Example 10, 1-(4-bromo-2-fluorobenzyl)-3-[5-(1,1-difluoroethyl)-6-methoxypyridin-3-yl]-6-fluoro-1,3,4,5-tetrahydro-2H-1,3-benzodiazepin-2-one], the Kb is 0.0251 µM.

Regarding `Cc1ncc(N2CCc3c(F)cccc3N(Cc3c(F)cc(Br)cc3F)C2=O)cc1OC(F)F` [Example 37, 1-(4-bromo-2,6-difluorobenzyl)-3-[5-(difluoromethoxy)-6-methylpyridin-3-yl]-6-fluoro-1,3,4,5-tetrahydro-2H-1,3-benzodiazepin-2-one], the Kb is 0.02 µM.

With `COc1ncc(C2CCc3c(F)cccc3N(Cc3c(F)cc(Br)cc3F)C2=O)cc1C(C)(F)F` (single isomer, unassigned) [Example 12, 1-(4-bromo-2,6-difluorobenzyl)-3-[5-(1,1-difluoroethyl)-6-methoxypyridin-3-yl]-6-fluoro-1,3,4,5-tetrahydro-2H-1-benzazepin-2-one], the Kb was 0.0126 µM.

The test is the same for the next values; noted with them: fpKb average OX1, IPone accumulation, CHO human OX1, orexin A EC80 challenge (~20 nM).
Consider `CSc1cc(N2CCc3c(F)cccc3N(Cc3c(F)cc(Br)cc3F)C2=O)ccc1C` [Example 26, 1-(4-bromo-2,6-difluorobenzyl)-6-fluoro-3-[4-methyl-3-(methylsulfanyl)phenyl]-1,3,4,5-tetrahydro-2H-1,3-benzodiazepin-2-one], for which the Kb was 0.0501 µM.
